SMILES strings stand for the structures. Where only a bound is given, the exact number is not on record here.

ADAMTS4, sequence (O75173 213-685): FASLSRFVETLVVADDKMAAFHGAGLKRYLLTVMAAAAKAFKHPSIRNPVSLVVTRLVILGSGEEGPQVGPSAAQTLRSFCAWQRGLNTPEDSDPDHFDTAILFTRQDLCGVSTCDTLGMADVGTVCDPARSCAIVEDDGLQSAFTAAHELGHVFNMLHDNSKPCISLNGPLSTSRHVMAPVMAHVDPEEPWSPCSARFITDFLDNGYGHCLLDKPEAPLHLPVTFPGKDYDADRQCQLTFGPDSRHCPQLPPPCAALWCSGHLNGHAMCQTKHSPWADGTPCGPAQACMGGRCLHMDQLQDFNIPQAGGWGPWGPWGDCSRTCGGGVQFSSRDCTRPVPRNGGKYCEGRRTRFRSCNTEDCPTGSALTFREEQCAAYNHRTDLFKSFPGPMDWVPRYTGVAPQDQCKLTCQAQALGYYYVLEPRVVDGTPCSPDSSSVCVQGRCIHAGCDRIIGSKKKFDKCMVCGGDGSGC

The assay concerns the target ADAMTS4 (Homo sapiens (Human), UniProt O75173). Kind of assay: Selectivity assay for ADAMTS-7 modulators: ADAMTS4 (FRET substrate). The class given is biochemical. To be noted: ADAMTS4 (R&D 4307-AD) 50 nM, substrate Dabcyl-EEVKAKVQPY-Glu(Edans)-NH2 1 μM, 120 min, 32° C. Put shortly:
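Activity read as rising fluorescence after a FRET substrate is cleaved by human ADAMTS4, with reactions started by substrate addition to wells holding compound or DMSO. Percent inhibition plotted against concentration gave IC50.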
What is called IC50 is the concentration that gives 50% inhibition. A high value points to weaker potency in that assay. In the case of `O=C1NC(=O)C(CNC(=O)c2ccccc2-c2ccc(C(F)(F)F)cc2)(c2cscn2)N1` (racemic) [Example 196, Rac-N-{[2,5-Dioxo-4-(1,3-Thiazol-4-Yl)Imidazolidin-4-Yl]Methyl}-4′-(Trifluoromethyl)[Biphenyl]-2-Carboxamide], the IC50 was found to be 30 µM.

`Cc1nscc1C1(CNC(=O)c2ccccc2-c2ccc(C(F)(F)F)nc2)NC(=O)NC1=O` (racemic) [Example 49, Rac-N-{[4-(3-Methyl-1,2-Thiazol-4-Yl)-2,5-Dioxoimidazolidin-4-Yl]Methyl}-2-[6-(Trifluoromethyl)Pyridin-3-Yl]Benzamide] registered an IC50 of 22 µM.

Molecule `Cn1nccc1C1(CNC(=O)c2ccc(F)cc2-c2ccc(C(F)(F)F)nc2)NC(=O)NC1=O` (single isomer, unassigned; ent-4) [Example 291, Ent-4-Fluoro-N-{[4-(1-Methyl-1H-Pyrazol-5-Yl)-2,5-Dioxoimidazolidin-4-Yl]Methyl}-2-[6-(Trifluoromethyl)Pyridin-3-Yl]Benzamide] showed a 50% inhibitory concentration (IC50) of 14 µM.

Molecule `CC1(CNC(=O)c2ccccc2-c2ccc(C(F)(F)F)cc2)NC(=O)NC1=O` (stereo not drawn) [Example 96, Ent-N-[(4-Methyl-2,5-Dioxoimidazolidin-4-Yl)Methyl]-4′-(Trifluoromethyl)[Biphenyl]-2-Carboxamide] returned an IC50 of 46 µM.

The molecule `Cn1ccnc1C1(CNC(=O)c2ccc(F)cc2-c2ccc(C3CC3(F)F)cc2)NC(=O)NC1=O` (stereo not drawn) [Example 141, 4′-(2,2-Difluorocyclopropyl)-5-Fluoro-N-{[4-(1-Methyl-1H-Imidazol-2-Yl)-2,5-Dioxoimidazolidin-4-Yl]Methyl}[1,1′-Biphenyl]-2-Carboxamide] returned an IC50 of 3.6 µM.

On to `Cc1ccc(-c2cc(Cl)ccc2C(=O)NC[C@@]2(C3CC3)NC(=O)NC2=O)cc1` [Example 215, 5-Chloro-N-{[(4R)-4-Cyclopropyl-2,5-Dioxoimidazolidin-4-Yl]Methyl}-4′-Methyl[Biphenyl]-2-Carboxamide], for which it took 3.5 µM to reach half-maximal inhibition (IC50).

The molecule `Cc1cnn(C)c1C1(CNC(=O)c2ccccc2-c2ccc(C(F)(F)F)cc2)NC(=O)NC1=O` (racemic) [Example 61, Rac-N-{[4-(1,4-Dimethyl-1H-Pyrazol-5-Yl)-2,5-Dioxoimidazolidin-4-Yl]Methyl}-4′-(Trifluoromethyl)[Biphenyl]-2-Carboxamide] gave an IC50 of 7.4 µM. Compared with the last molecule, the IC50 is about 2.1-fold higher.

In turn, `O=C1NC(=O)C(CNC(=O)c2ccccc2-c2ccc(C(F)(F)F)nc2)(c2ccnn2C2CC2)N1` (racemic) [Example 40, Rac-N-{[4-(1-Cyclopropyl-1H-Pyrazol-5-Yl)-2,5-Dioxoimidazolidin-4-Yl]Methyl}-2-[6-(Trifluoromethyl)Pyridin-3-Yl]Benzamide] had an IC50 of 21 µM.

`Cc1nn(C)cc1C1(CNC(=O)c2ccccc2-c2ccc(C(F)(F)F)nc2)NC(=O)NC1=O` (racemic) [Example 55, Rac-N-{[4-(1,3-Dimethyl-1H-Pyrazol-4-Yl)-2,5-Dioxoimidazolidin-4-Yl]Methyl}-2-[6-(Trifluoromethyl)Pyridin-3-Yl]Benzamide]: the IC50 was 30 µM.

The molecule `Cn1nccc1C1(CNC(=O)c2cc(F)ccc2-c2ccc(C(F)(F)F)cc2)NC(=O)NC1=O` (single isomer, unassigned; ent-4) [Example 178, Ent-4-Fluoro-N-{[4-(1-Methyl-1H-Pyrazol-5-Yl)-2,5-Dioxoimidazolidin-4-Yl]Methyl}-4′-(Trifluoromethyl)[Biphenyl]-2-Carboxamide] showed a half-maximal inhibitory concentration (IC50) of 5.37 µM.

`O=C1NC(=O)C(CNC(=O)c2ccccc2-c2ccc(C(F)(F)F)nc2)(C2(Cl)CC2)N1` (racemic) [Example 281, Rac-N-{[4-(1-Chlorocyclopropyl)-2,5-Dioxoimidazolidin-4-Yl]Methyl}-2-[6-(Trifluoromethyl)Pyridin-3-Yl]Benzamide] registered an IC50 of 26 µM.

`Cc1nscc1C1(CNC(=O)c2ccccc2-c2ccc(C(F)(F)F)cc2)NC(=O)NC1=O` (racemic) [Example 63, Rac-N-{[4-(3-Methyl-1,2-Thiazol-4-Yl)-2,5-Dioxoimidazolidin-4-Yl]Methyl}-4′-(Trifluoromethyl)[Biphenyl]-2-Carboxamide] yielded an IC50 of 13 µM.

Turning to `Cc1c(C2(CNC(=O)c3ccccc3-c3ccc(C(F)(F)F)cc3)NC(=O)NC2=O)cnn1CC(F)(F)F` (racemic) [Example 98, Rac-N-({4-[5-Methyl-1-(2,2,2-Trifluoroethyl)-1H-Pyrazol-4-Yl]-2,5-Dioxoimidazolidin-4-Yl}Methyl)-4′-(Trifluoromethyl)[Biphenyl]-2-Carboxamide], the IC50 worked out at 21 µM.

Take `Cc1ccc(-c2ccccc2C(=O)NCC2(c3nccn3C)NC(=O)NC2=O)cc1` (single isomer, unassigned; ent-4) [Example 146, Ent-4′-Methyl-N-{[4-(1-Methyl-1H-Imidazol-2-Yl)-2,5-Dioxoimidazolidin-4-Yl]Methyl}[Biphenyl]-2-Carboxamide]: the midpoint of inhibition, the IC50, lay at 1.9 µM.

Take `O=C1NC(=O)C(CNC(=O)c2ccccc2-c2ccc(C(F)(F)F)cc2)(c2ncsc2C2CC2)N1` (stereo not drawn) [Example 271, Ent-N-{[4-(5-Cyclopropyl-1,3-Thiazol-4-Yl)-2,5-Dioxoimidazolidin-4-Yl]Methyl}-4′-(Trifluoromethyl)[Biphenyl]-2-Carboxamide]: the IC50 amounted to 2.7 µM.

In turn, `O=C1NC(=O)C(CNC(=O)c2ccc(F)cc2-c2ccc(C(F)(F)F)cc2)(C2(F)CC2)N1` (racemic) [Example 252, Rac-5-Fluoro-N-{[4-(1-Fluorocyclopropyl)-2,5-Dioxoimidazolidin-4-Yl]Methyl}-4′-(Trifluoromethyl)[Biphenyl]-2-Carboxamide] displayed a 50% inhibitory concentration (IC50) of 41 µM.

The molecule `CC(C)C1(CNC(=O)c2cc(F)ccc2-c2ccc(C(F)(F)F)cc2)NC(=O)NC1=O` (single isomer, unassigned; ent-4) [Example 212, Ent-4-Fluoro-N-[(4-Isopropyl-2,5-Dioxoimidazolidin-4-Yl)Methyl]-4′-(Trifluoromethyl)[Biphenyl]-2-Carboxamide] registered an IC50 of 13 µM.

Regarding `Cn1nccc1C1(CNC(=O)c2ccccc2-c2ccc(Cl)cc2F)NC(=O)NC1=O` (single isomer, unassigned; ent-4) [Example 313, Ent-4′-Chloro-2′-Fluoro-N-{[4-(1-Methyl-1H-Pyrazol-5-Yl)-2,5-Dioxoimidazolidin-4-Yl]Methyl}[Biphenyl]-2-Carboxamide], the IC50 amounted to 23 µM.

`Cc1ncsc1C1(CNC(=O)c2cc(F)ccc2-c2ccc(C(F)(F)F)cc2)NC(=O)NC1=O` (single isomer, unassigned; ent-4) [Example 11, Ent-4-Fluoro-N-{[4-(4-Methyl-1,3-Thiazol-5-Yl)-2,5-Dioxoimidazolidin-4-Yl]Methyl}-4′-(Trifluoromethyl)[Biphenyl]-2-Carboxamide] registered an IC50 of 5.9 µM.

The molecule `O=C1NC(=O)[C@](CNC(=O)c2cccnc2-c2ccc(C(F)(F)F)cc2)(C2CC2)N1` [Example 82, N-{[(4R)-4-Cyclopropyl-2,5-Dioxoimidazolidin-4-Yl]Methyl}-2-[4-(Trifluoromethyl)Phenyl]Pyridine-3-Carboxamide] gave an IC50 above 50 µM.

`O=C1NC(=O)[C@](CNC(=O)c2ccccc2-c2ccc(C3CC3(F)F)cc2)(C2CC2)N1` (stereo partly drawn) [Example 111, N-{[(4R)-4-Cyclopropyl-2,5-Dioxoimidazolidin-4-Yl]Methyl}-4′-(2,2-Difluorocyclopropyl)[Biphenyl]-2-Carboxamide] displayed a concentration for half-maximal inhibition (IC50) of 7.9 µM.

These data come from patent US12398120B2, “Substituted hydantoinamides as ADAMTS7 antagonists” (BAYER AKTIENGESELLSCHAFT, priority 2019, dated 2025).
